Results from publication PMC7111787 (Virology, 2006).

Target: T1, MHV E protein (Murine hepatitis virus strain A59, UniProt P0C2R0)
T1 sequence (P0C2R0 1-83): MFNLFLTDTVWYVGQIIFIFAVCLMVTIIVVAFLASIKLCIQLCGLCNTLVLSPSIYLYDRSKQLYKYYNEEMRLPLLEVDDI
Assay: planar lipid bilayer current recording, dose titration
Assay type: biochemical

## N=C(N)NC(=O)c1nc(Cl)c(N2CCCCCC2)nc1N [HMA, Hexamethylene amiloride]
  EC50: 10.2 µM
